system: Caenorhabditis elegans; assay: C. elegans L1 nematicidal dose response in 96-well plates, 5 day visual score (Example 2; same procedure for Example 7, Table 3); format: in vivo; set-up: key to 5 Day Visual Score V1 / 5 Day Visual Score V2 / 5 Day Visual Score V3 / 5 Day Visual Score V4 / 5 Day Visual Score V6 / 5 Day Visual Score V5 / Initial HTS Run Visual Score / Follow-up HTS Run Visual Score: Dead: only stiff L1s (no movement); Dead (L4): worms are dead, but at a later larval stage; majority of worms are L1 (based on size) worms move when plate is tapped; majority of worms are L2 (based on size); majority of worms are L3 (based on size); majority of worms are L4 (based on size); AD: majority of worms are adult; #AD: 5 adult worms or less; B!: sterile (0-25 progeny); B: low broodsize (25-100 progeny); ˜B: moderate broodsize (100-250 progeny); <: reduced broodsize (250-500 progeny); OK: no effect (˜1000+ progeny); details: Follow-up HTS run
In short: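 L1 larvae, 20 per well in NGM with 1% E. coli HB101 and antibiotic/antimycotic, exposed to six 3-fold dilutions from 70 μM down to 0.3 μM (1.4% DMSO at top). Held at 20° C; viability scored visually under 100× dissecting microscope on day 5.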

Compound | Follow-up HTS Run % Run | Follow-up HTS Run Visual Score | Follow-up HTS Run mOD
CCCCCCCCCCNc1nsc(N(CC(C)C)CC(C)C)n1 [compound 281] | 128% | Dead | 206 mOD
CCCCN(Cc1ccccc1)c1nc(NCc2c(F)cccc2F)ns1 [compound 298] | 143% | – | 231 mOD
Fc1ccc(CCNc2nsc(N3CCN(c4cccc(C(F)(F)F)c4)CC3)n2)cc1 [compound 225] | 107% | – | 172 mOD
Cc1cccc(C)c1N1CCN(c2nc(NCCC(c3ccccc3)c3ccccc3)ns2)CC1 [compound 287] | 88% | – | 142 mOD
CCCCCCCCCCCCCCCCCCN(C)c1nc(NC2CCCCCCCCCCC2)ns1 [compound 330] | 56% | Dead | 90 mOD
CN(Cc1ccccc1)c1nc(NCc2ccc(F)cc2F)ns1 [compound 295] | 128% | B! (sterile (0-25 progeny)) | 206 mOD
CCCCN(Cc1ccccc1)c1nc(NCc2ccc(F)cc2F)ns1 [compound 291] | 137% | B! (sterile (0-25 progeny)) | 220 mOD
FC(F)(F)c1ccc(CNc2nsc(N3CCN(c4ncccn4)CC3)n2)cc1 [compound 303] | 111% | – | 178 mOD
CCN(Cc1ccccc1)c1nc(NCc2ccccc2C(F)(F)F)ns1 [compound 320] | 118% | – | 190 mOD
FC(F)(F)c1cccc(N2CCN(c3nc(NCC4CCCCC4)ns3)CC2)c1 [compound 226] | 104% | – | 167 mOD

same assay, conditions: Initial HTS run

Compound | Initial HTS Run % Run | Initial HTS Run Visual Score | Initial HTS Run mOD
CCCCCCCCCCNc1nsc(N(CC(C)C)CC(C)C)n1 [compound 281] | 141% | Dead | 155 mOD
CCCCN(Cc1ccccc1)c1nc(NCc2c(F)cccc2F)ns1 [compound 298] | 125% | L2 | 137 mOD
Fc1ccc(CCNc2nsc(N3CCN(c4cccc(C(F)(F)F)c4)CC3)n2)cc1 [compound 225] | 114% | – | 125 mOD
Cc1cccc(C)c1N1CCN(c2nc(NCCC(c3ccccc3)c3ccccc3)ns2)CC1 [compound 287] | 128% | – | 141 mOD
CCCCCCCCCCCCCCCCCCN(C)c1nc(NC2CCCCCCCCCCC2)ns1 [compound 330] | 107% | Dead (L2/L3) | 118 mOD
CN(Cc1ccccc1)c1nc(NCc2ccc(F)cc2F)ns1 [compound 295] | 121% | L4/AD/B!-Few Eggs | 133 mOD
CCCCN(Cc1ccccc1)c1nc(NCc2ccc(F)cc2F)ns1 [compound 291] | 136% | – | 150 mOD
FC(F)(F)c1ccc(CNc2nsc(N3CCN(c4ncccn4)CC3)n2)cc1 [compound 303] | 96% | L3 | 106 mOD
CCN(Cc1ccccc1)c1nc(NCc2ccccc2C(F)(F)F)ns1 [compound 320] | 102% | – | 112 mOD
FC(F)(F)c1cccc(N2CCN(c3nc(NCC4CCCCC4)ns3)CC2)c1 [compound 226] | 107% | – | 118 mOD

same assay, conditions: dose response, dilution V1, 5 day

Compound | 5 Day Visual Score V1
CCCCCCCCCCCCCCCCCCN(C)c1nc(NC2CCCCCCCCCCC2)ns1 [compound 330] | Dead
CCN(Cc1ccccc1)c1nc(NCc2ccccc2C(F)(F)F)ns1 [compound 320] | L4#AD/B!

same assay, conditions: dose response, dilution V1, day 5

Compound | 5 Day Visual Score V1
CCCCCCCCCCNc1nsc(N(CC(C)C)CC(C)C)n1 [compound 281] | Dead
CCCCN(Cc1ccccc1)c1nc(NCc2c(F)cccc2F)ns1 [compound 298] | L4#AD/B
Cc1cccc(C)c1N1CCN(c2nc(NCCC(c3ccccc3)c3ccccc3)ns2)CC1 [compound 287] | Dead
CCCCN(Cc1ccccc1)c1nc(NCc2ccc(F)cc2F)ns1 [compound 291] | L4#AD/B!
FC(F)(F)c1ccc(CNc2nsc(N3CCN(c4ncccn4)CC3)n2)cc1 [compound 303] | Dead
FC(F)(F)c1cccc(N2CCN(c3nc(NCC4CCCCC4)ns3)CC2)c1 [compound 226] | L1

same assay, conditions: dose response, dilution V2, 5 day

Compound | 5 Day Visual Score V2
CCCCCCCCCCCCCCCCCCN(C)c1nc(NC2CCCCCCCCCCC2)ns1 [compound 330] | Dead
CCN(Cc1ccccc1)c1nc(NCc2ccccc2C(F)(F)F)ns1 [compound 320] | < (reduced broodsize (250-500 progeny))

same assay, conditions: dose response, dilution V2, day 5

Compound | 5 Day Visual Score V2
CCCCCCCCCCNc1nsc(N(CC(C)C)CC(C)C)n1 [compound 281] | Dead
CCCCN(Cc1ccccc1)c1nc(NCc2c(F)cccc2F)ns1 [compound 298] | ˜B (moderate broodsize (100-250 progeny))
Cc1cccc(C)c1N1CCN(c2nc(NCCC(c3ccccc3)c3ccccc3)ns2)CC1 [compound 287] | B (low broodsize (25-100 progeny))
CN(Cc1ccccc1)c1nc(NCc2ccc(F)cc2F)ns1 [compound 295] | B (low broodsize (25-100 progeny))
CCCCN(Cc1ccccc1)c1nc(NCc2ccc(F)cc2F)ns1 [compound 291] | OK (no effect (˜1000+ progeny))
FC(F)(F)c1ccc(CNc2nsc(N3CCN(c4ncccn4)CC3)n2)cc1 [compound 303] | L1
FC(F)(F)c1cccc(N2CCN(c3nc(NCC4CCCCC4)ns3)CC2)c1 [compound 226] | ˜B (moderate broodsize (100-250 progeny))

same assay, conditions: dose response, dilution V3, 5 day

Compound | 5 Day Visual Score V3
CCN(Cc1ccccc1)c1nc(NCc2ccccc2C(F)(F)F)ns1 [compound 320] | OK (no effect (˜1000+ progeny))

same assay, conditions: dose response, dilution V3, day 5

Compound | 5 Day Visual Score V3
CCCCN(Cc1ccccc1)c1nc(NCc2c(F)cccc2F)ns1 [compound 298] | OK (no effect (˜1000+ progeny))
Fc1ccc(CCNc2nsc(N3CCN(c4cccc(C(F)(F)F)c4)CC3)n2)cc1 [compound 225] | ˜B (moderate broodsize (100-250 progeny))
CN(Cc1ccccc1)c1nc(NCc2ccc(F)cc2F)ns1 [compound 295] | B (low broodsize (25-100 progeny))
CCCCN(Cc1ccccc1)c1nc(NCc2ccc(F)cc2F)ns1 [compound 291] | OK (no effect (˜1000+ progeny))
FC(F)(F)c1ccc(CNc2nsc(N3CCN(c4ncccn4)CC3)n2)cc1 [compound 303] | Dead
FC(F)(F)c1cccc(N2CCN(c3nc(NCC4CCCCC4)ns3)CC2)c1 [compound 226] | OK (no effect (˜1000+ progeny))

same assay, conditions: dose response, dilution V4, 5 day

Compound | 5 Day Visual Score V4
CCCCCCCCCCCCCCCCCCN(C)c1nc(NC2CCCCCCCCCCC2)ns1 [compound 330] | OK (no effect (˜1000+ progeny))
CCN(Cc1ccccc1)c1nc(NCc2ccccc2C(F)(F)F)ns1 [compound 320] | OK (no effect (˜1000+ progeny))

same assay, conditions: dose response, dilution V4, day 5

Compound | 5 Day Visual Score V4
CCCCCCCCCCNc1nsc(N(CC(C)C)CC(C)C)n1 [compound 281] | OK (no effect (˜1000+ progeny))
CCCCN(Cc1ccccc1)c1nc(NCc2c(F)cccc2F)ns1 [compound 298] | OK (no effect (˜1000+ progeny))
Fc1ccc(CCNc2nsc(N3CCN(c4cccc(C(F)(F)F)c4)CC3)n2)cc1 [compound 225] | OK (no effect (˜1000+ progeny))
Cc1cccc(C)c1N1CCN(c2nc(NCCC(c3ccccc3)c3ccccc3)ns2)CC1 [compound 287] | OK (no effect (˜1000+ progeny))
CN(Cc1ccccc1)c1nc(NCc2ccc(F)cc2F)ns1 [compound 295] | OK (no effect (˜1000+ progeny))
CCCCN(Cc1ccccc1)c1nc(NCc2ccc(F)cc2F)ns1 [compound 291] | OK (no effect (˜1000+ progeny))
FC(F)(F)c1ccc(CNc2nsc(N3CCN(c4ncccn4)CC3)n2)cc1 [compound 303] | OK (no effect (˜1000+ progeny))
FC(F)(F)c1cccc(N2CCN(c3nc(NCC4CCCCC4)ns3)CC2)c1 [compound 226] | OK (no effect (˜1000+ progeny))

same assay, conditions: dose response, dilution V5, 5 day

Compound | 5 Day Visual Score V5
CCCCCCCCCCCCCCCCCCN(C)c1nc(NC2CCCCCCCCCCC2)ns1 [compound 330] | OK (no effect (˜1000+ progeny))
CCN(Cc1ccccc1)c1nc(NCc2ccccc2C(F)(F)F)ns1 [compound 320] | OK (no effect (˜1000+ progeny))

same assay, conditions: dose response, dilution V5, day 5

Compound | 5 Day Visual Score V5
CCCCCCCCCCNc1nsc(N(CC(C)C)CC(C)C)n1 [compound 281] | OK (no effect (˜1000+ progeny))
CCCCN(Cc1ccccc1)c1nc(NCc2c(F)cccc2F)ns1 [compound 298] | OK (no effect (˜1000+ progeny))
Fc1ccc(CCNc2nsc(N3CCN(c4cccc(C(F)(F)F)c4)CC3)n2)cc1 [compound 225] | OK (no effect (˜1000+ progeny))
Cc1cccc(C)c1N1CCN(c2nc(NCCC(c3ccccc3)c3ccccc3)ns2)CC1 [compound 287] | OK (no effect (˜1000+ progeny))
CN(Cc1ccccc1)c1nc(NCc2ccc(F)cc2F)ns1 [compound 295] | OK (no effect (˜1000+ progeny))
CCCCN(Cc1ccccc1)c1nc(NCc2ccc(F)cc2F)ns1 [compound 291] | OK (no effect (˜1000+ progeny))
FC(F)(F)c1ccc(CNc2nsc(N3CCN(c4ncccn4)CC3)n2)cc1 [compound 303] | < (reduced broodsize (250-500 progeny))
FC(F)(F)c1cccc(N2CCN(c3nc(NCC4CCCCC4)ns3)CC2)c1 [compound 226] | OK (no effect (˜1000+ progeny))

same assay, conditions: dose response, dilution V6, 5 day

Compound | 5 Day Visual Score V6
CCCCCCCCCCCCCCCCCCN(C)c1nc(NC2CCCCCCCCCCC2)ns1 [compound 330] | OK (no effect (˜1000+ progeny))
CCN(Cc1ccccc1)c1nc(NCc2ccccc2C(F)(F)F)ns1 [compound 320] | OK (no effect (˜1000+ progeny))

same assay, conditions: dose response, dilution V6, day 5

Compound | 5 Day Visual Score V6
CCCCCCCCCCNc1nsc(N(CC(C)C)CC(C)C)n1 [compound 281] | OK (no effect (˜1000+ progeny))
CCCCN(Cc1ccccc1)c1nc(NCc2c(F)cccc2F)ns1 [compound 298] | OK (no effect (˜1000+ progeny))
Fc1ccc(CCNc2nsc(N3CCN(c4cccc(C(F)(F)F)c4)CC3)n2)cc1 [compound 225] | OK (no effect (˜1000+ progeny))
Cc1cccc(C)c1N1CCN(c2nc(NCCC(c3ccccc3)c3ccccc3)ns2)CC1 [compound 287] | OK (no effect (˜1000+ progeny))
CN(Cc1ccccc1)c1nc(NCc2ccc(F)cc2F)ns1 [compound 295] | OK (no effect (˜1000+ progeny))
CCCCN(Cc1ccccc1)c1nc(NCc2ccc(F)cc2F)ns1 [compound 291] | OK (no effect (˜1000+ progeny))
FC(F)(F)c1cccc(N2CCN(c3nc(NCC4CCCCC4)ns3)CC2)c1 [compound 226] | OK (no effect (˜1000+ progeny))
